Values after ≈ are worked out from the molar mass of the structure shown. Read-outs that look alike come from different tables or passages of the source. Where no end group is shown, it is not given here.
Tests used:
Assay type in all cases: cell-based
Listeria monocytogenes [1] = test: Cow milk assay, MIC against Listeria monocytogenes
Protocol: (§1) In vitro experiments were conducted to test the behavior of the peptides as disclosed herein in 3.5% fat cow milk, against Listeria monocytogenes. The peptide according to the SEQ ID N° 1 was adjusted to a concentration of 1 mg/ml and mixed with cow milk in equal parts. This mixture was incubated overnight at 37° C. To remove solid parts of the milk, the mixture was centrifuged and the obtained supernatant was used for MICs.

C. albicans = test: Peptide stability in bodily fluids (sheep blood, urine), MIC against C. albicans; settings: Candida albicans
Protocol: as §1, with “blood,” for “3.5% fat cow milk,”, “C. albicans. C. albicans isolates from human blood were used (DSMZ 6569).” for “Listeria monocytogenes.”, “sheep blood” for “cow milk”, “30°” for “37°”, “blood,” for “milk,”, “obtained plasma” for “obtained”
as §1, with “urine,” for “3.5% fat cow milk,”, “C. albicans.” for “Listeria monocytogenes.”, “synthetic urine or human urine” for “cow milk”, “These mixtures were” for “This mixture was”, “30°” for “37°”, “urine,” for “milk,”

E. coli = test: MIC assay, E. coli
Protocol: (§2) The antimicrobial potential of the peptides described herein was compared with the activity of two other AMPs, TcAMP1 and TcAMP2 as discussed in WO1998027805, and antibiotics or fungicides. Comparative MIC assays were carried out against several bacterial and fungal species (Table 1).
(§3) Peptides according to SEQ ID N° 1, SEQ ID N° 2, SEQ ID N° 4, SEQ ID N° 6, and SEQ ID N° 7 were serially diluted in order to create a concentration sequence ranging from 0.39 μg/ml to […].
(§4) For the MIC assay bacteria and fungi were grown on agar plates with their respective media. Pre-cultures were prepared by inoculating either single bacterial colonies or small pieces of fungi in 5 ml of the respective liquid medium. The optical density (OD) at 600 nm was measured after one to five days and adjusted to an OD600 of 1. This cell suspension was used to prepare 1:500 dilutions, corresponding to approximately 2×10^6 microbial cells per ml.
(§5) To evaluate MICs, 96-well plates were prepared with the test antimicrobial peptides. Each well contained 100 μl microbial cell culture, 90 μl culture medium, and 10 μl peptide or control at the corresponding dilution. The plates were incubated overnight (ON) at the optimal growth temperature for each tested organism (Table 1). Results were visually evaluated and MICs determined based on growth or no-growth.
(§6) MIC assays were conducted in at least two independent replicates and with different peptide starting concentrations.

Listeria monocytogenes [2] = test: microbe, parasite or virus in culture
Protocol: as §2, §3
(§7) Pantoea, Staphylococcus, and Listeria were cultured in Trypticase Soy Broth (TSY) medium consisting of 1.7% casein peptone, 0.3% soy peptone, 0.25% glucose, 0.5% NaCl, 0.25% K2HPO4 and optionally 1.5% agar. Candida cells were cultured in Yeast Extract Peptone Dextrose (YPD) broth medium consisting of 1% yeast extract, 2% peptone, 2% glucose, and optionally 2% agar. Ceratocystis, Botrytis, Leptosphaeria, Mycosphaerella, Sclerotinia, and Verticillium were cultured in Potato Dextrose Agar (PDA) medium consisting of 2.4% Difco pre-mix broth and optionally 1.5% agar.
as §4, §5, §6

[3] = test system: Staphylococcus aureus MRSA; test: microbe, parasite or virus in culture
Protocol: as §2, §3, §7, §4, §5, §6

Pantoea agglomerans = test system: Pantoea agglomerans
Protocol: as §2, §3, §7, §4, §5, §6

Ceratosystis paradoxa = test: organism not typed
Protocol: as §2, §3, §7, §4, §5, §6

Botrytis cinerea = test: microbe, parasite or virus in culture
Protocol: as §2, §3, §7, §4, §5, §6

Mycosphaerella pinodes = test: microbe, parasite or virus in culture
Protocol: as §2, §3, §7, §4, §5, §6

Leptosphaeria maculans = test: microbe, parasite or virus in culture
Protocol: as §2, §3, §7, §4, §5, §6

Candida albicans = test: microbe, parasite or virus in culture
Protocol: as §2, §3, §7, §4, §5, §6

Sclerotinia sclerotiorum = test: microbe, parasite or virus in culture
Protocol: as §2, §3, §7, §4, §5, §6

Verticillium dahliae = test: microbe, parasite or virus in culture
Protocol: as §2, §3, §7, §4, §5, §6

Erwinia amylovora = test: MIC assay in soil slurry
Protocol: In vitro experiments were conducted to test the behavior of the peptides as disclosed herein in soil slurry, against Erwinia amylovora. Soil slurry was generated by mixing 5 g soil in 20 ml water. This mixture was incubated for 1 h at an overhead shaker. The solid parts were removed by centrifugation and the obtained supernatant, referred to as soil slurry, was used for the MIC assay. Equal volumes of the peptide according to SEQ ID N°1 (8 mg/ml) and soil slurry were mixed and incubated overnight at 28° C. The mixture was used for MIC against Erwinia amylovora.

[4] = test system: several bacterial and fungal species; test: Comparative MIC assays, all tested organisms; settings: bacterial species of Table 3, all tested species
Protocol: as §2, §3, §7
For the MIC assay bacteria and fungi were grown on agar plates with their respective media. […] The optical density (OD) at 600 nm was measured after one to five days and adjusted to an OD600 of 1. […]
To evaluate MICs, 96-well plates were prepared with the test antimicrobial peptides. […] Results were visually evaluated and MICs determined based on growth or no-growth. […]

[5] = Listeria monocytogenes DSM 102976, TSY, 37° C., overnight
[6] = Staphylococcus aureus MRSA DSM 11729, TSY, 37° C., overnight
[7] = Pantoea agglomerans JUB-CC-3253, TSY, 37° C., overnight
[8] = Ceratosystis paradoxa DSMZ 63054, PDA, 18° C., overnight
[9] = Botrytis cinerea DSMZ 877, PDA, 24° C., overnight
[10] = Mycosphaerella pinodes DSMZ 62763, PDA, 30° C., overnight
[11] = Leptosphaeria maculans SF 70, PDA, 18° C., overnight
[12] = Candida albicans DSM 1386, YPD, 30° C., overnight
[13] = Sclerotinia sclerotiorum SF 79, PDA, 18° C., overnight
[14] = Verticillium dahliae SF 76, PDA, 28° C., overnight

Molecule: CN(C)[C@@H]1C(O)=C(C(N)=O)C(=O)[C@@]2(O)C(O)=C3C(=O)c4c(O)cccc4[C@@](C)(O)[C@H]3C[C@@H]12 [Tetracycline, tetracycline]
- MIC (Listeria monocytogenes [1]; control, milk-free (and reference drug), read-out: Minimal inhibitory concentration): 1.6 µg/mL (≈ 3.6 µM)

Molecule: CC[C@H](C)C[C@H](C)CCCCCCCCC(=O)N[C@H]1C[C@@H](O)[C@@H](NCCN)NC(=O)[C@@H]2[C@@H](O)CCN2C(=O)[C@H]([C@H](O)CCN)NC(=O)[C@H]([C@H](O)[C@@H](O)c2ccc(O)cc2)NC(=O)[C@@H]2C[C@@H](O)CN2C(=O)[C@H]([C@@H](C)O)NC1=O [Caspofungin, caspofungin]
- MIC (C. albicans; read-out: Minimal inhibitory concentration): 0.5 µg/mL (≈ 0.457 µM)

Molecule: Gentamycin
- Minimal inhibitory concentration (E. coli): 1 µg/mL
- Minimal inhibitory concentration (Listeria monocytogenes [2]; [5]): 0.4 µg/mL
- Minimal inhibitory concentration [3, 6]: 0.8 µg/mL
- Minimal inhibitory concentration (Pantoea agglomerans; [7]): 1.56 µg/mL

Molecule: YERDPRQQYEQCQRRCESEATEEREQEQCEQRCEREYKEQQRQQEEE (cysteines drawn unpaired) [SEQ ID No 6]
- Minimal inhibitory concentration (Ceratosystis paradoxa): 4.8 µg/mL
- Minimal inhibitory concentration (Botrytis cinerea): 14.5 µg/mL
- Minimal inhibitory concentration (Listeria monocytogenes [2]): 3.25 µg/mL
- Minimal inhibitory concentration (Mycosphaerella pinodes): 13.12 µg/mL
- Minimal inhibitory concentration (Leptosphaeria maculans): 37.9 µg/mL
- Minimal inhibitory concentration (Candida albicans): 13.1 µg/mL
- Minimal inhibitory concentration (Sclerotinia sclerotiorum): 27.2 µg/mL
- Minimal inhibitory concentration [3]: 13 µg/mL
- Minimal inhibitory concentration (Verticillium dahliae): 14.5 µg/mL
- Minimal inhibitory concentration (Pantoea agglomerans): 7.9 µg/mL

Molecule: [H]/N=C(/N)N[C@H]1[C@H](O)[C@@H](O)[C@H](O[C@@H]2O[C@@H](C)[C@](O)(C=O)[C@H]2O[C@@H]2O[C@@H](CO)[C@H](O)[C@@H](O)[C@@H]2NC)[C@@H](N/C(N)=N\[H])[C@@H]1O [Streptomycin]
- MIC (Listeria monocytogenes [2]; DSM102976, Listeria monocytogenes DSM 102976, TSY, 37° C., overnight, read-out: Minimal inhibitory concentration): 7.8 µg/mL (≈ 13.4 µM)
- MIC ([3]; DSM 11729 / MRSA, Staphylococcus aureus MRSA DSM 11729, TSY, 37° C., overnight, read-out: Minimal inhibitory concentration): > 125 µg/mL

Molecule: LQRQYQQCQGRCQEQQQGQREQQQCQRKCWEQYKEQERGEHENYHNHKKNRSEEEEGQQR (cysteines drawn unpaired) [SEQ ID No 7]
- Minimal inhibitory concentration (Ceratosystis paradoxa): 4.7 µg/mL
- Minimal inhibitory concentration (Botrytis cinerea): 12.75 µg/mL
- Minimal inhibitory concentration (Listeria monocytogenes [2]): 13.6 µg/mL
- Minimal inhibitory concentration (Mycosphaerella pinodes): 10.68 µg/mL
- Minimal inhibitory concentration (Leptosphaeria maculans): 9.4 µg/mL
- Minimal inhibitory concentration (Candida albicans): 12.75 µg/mL
- Minimal inhibitory concentration (Sclerotinia sclerotiorum): 23.5 µg/mL
- Minimal inhibitory concentration [3]: 13.6 µg/mL
- Minimal inhibitory concentration (Verticillium dahliae): 12.7 µg/mL
- Minimal inhibitory concentration (Pantoea agglomerans): 9.45 µg/mL

Molecule: Clc1ccccc1C(c1ccccc1)(c1ccccc1)n1ccnc1 [Clotrimazole]
- MIC (Ceratosystis paradoxa; Ceratosystis paradoxa DSMZ 63054, PDA, 18° C., overnight, read-out: Minimal inhibitory concentration): 0.4 µg/mL (≈ 1.16 µM)
- MIC (Botrytis cinerea; DSMZ877, Botrytis cinerea DSMZ 877, PDA, 24° C., overnight, read-out: Minimal inhibitory concentration): 6.25 µg/mL (≈ 18.1 µM)
- MIC (Mycosphaerella pinodes; Didymella pinodes, DSMZ62763, Mycosphaerella pinodes DSMZ 62763, PDA, 30° C., overnight, read-out: Minimal inhibitory concentration): 3.1 µg/mL (≈ 8.99 µM)
- MIC (Leptosphaeria maculans; Plenodomus lingam, Leptosphaeria maculans SF 70, PDA, 18° C., overnight, read-out: Minimal inhibitory concentration): 0.4 µg/mL (≈ 1.16 µM)
- MIC (Candida albicans; DSM1386, Candida albicans DSM 1386, YPD, 30° C., overnight, read-out: Minimal inhibitory concentration): 3.1 µg/mL (≈ 8.99 µM)
- MIC (Sclerotinia sclerotiorum; Sclerotinia sclerotiorum SF 79, PDA, 18° C., overnight, read-out: Minimal inhibitory concentration): 25 µg/mL (≈ 72.5 µM)
- MIC (Verticillium dahliae; Verticillium dahliae SF 76, PDA, 28° C., overnight, read-out: Minimal inhibitory concentration): 1.56 µg/mL (≈ 4.52 µM)

B1: SEQ ID No 1: Antimicrobial peptide from the N-terminal region of Theobroma cacao (CCN-51) vicilin protein, 15 kDa spot; natural, recombinant or synthetic (peptide)
chain: YGRKQYERDPRQQYEQCQRRCESEATEEREQEQCEQRCEREYKEQQRQQEEELQRQYQQCQGRCQEQQQGQREQQQCQRKCWEQYKEQERGEHENYHNHKKN
modifications: Theobroma cacao
notes: Antimicrobial peptide from the N-terminal region of Theobroma cacao (CCN-51) vicilin protein, 15 kDa spot; natural, recombinant or synthetic
- Minimal inhibitory concentration (Listeria monocytogenes [1]; control, milk-free (and reference drug)): 3.1 µg/mL
- Minimal inhibitory concentration (Listeria monocytogenes [1]; control, milk-free (and reference drug), listed as SEQ ID N° 1): 3.2 µg/mL
- Minimal inhibitory concentration (Listeria monocytogenes [1]; peptide 1 mg/ml mixed with 3.5% fat cow milk in equal parts, overnight 37° C., supernatant): 80 µg/mL
- Minimal inhibitory concentration (Ceratosystis paradoxa; [8]): 5 µg/mL
- Minimal inhibitory concentration (E. coli): 3.1 µg/mL
- Minimal inhibitory concentration (C. albicans; control, no bodily fluid (and reference drug)): 0.4 µg/mL
- Minimal inhibitory concentration (C. albicans; peptide 1 mg/ml mixed with human urine in equal parts, overnight 30° C., supernatant): 5 µg/mL
- Minimal inhibitory concentration (C. albicans; peptide 1 mg/ml mixed with sheep blood in equal parts, overnight 30° C., plasma supernatant): 25 µg/mL
- Minimal inhibitory concentration (C. albicans; peptide 1 mg/ml mixed with synthetic urine in equal parts, overnight 30° C., supernatant): 2 µg/mL
- Minimal inhibitory concentration (Botrytis cinerea; [9]): 6.25 µg/mL
- Minimal inhibitory concentration (Listeria monocytogenes [2]; [5]): 3.1 µg/mL
- Minimal inhibitory concentration (Mycosphaerella pinodes; [10]): 1.9 µg/mL
- Minimal inhibitory concentration (Leptosphaeria maculans; [11]): 3.75 µg/mL
- Minimal inhibitory concentration (Candida albicans; [12]): 0.4 µg/mL
- Minimal inhibitory concentration (Sclerotinia sclerotiorum; [13]): 10.25 µg/mL
- Minimal inhibitory concentration [3, 6]: 3.1 µg/mL
- Minimal inhibitory concentration (Verticillium dahliae; [14]): 1.6 µg/mL
- concentration inhibiting bacteria growth (MIC) (Erwinia amylovora; control conditions): 15 µg/mL
- concentration inhibiting bacteria growth (MIC) (Erwinia amylovora; peptide (8 mg/ml) mixed with equal volume of soil slurry, overnight 28° C.): 25 µg/mL
- Minimal inhibitory concentration (Pantoea agglomerans; [7]): 1.1 µg/mL
- efficiency compared with the prior art peptides [4]: more efficient than the prior art peptides

B2: SEQ ID No 2: Cocoa vicilin-derived antimicrobial peptide of the invention, recombinant or synthetic, mass of 15.3 kDa (peptide)
chain: YGRKQYERDPRQQYEQCQRRCESEATEEREQEQCEQRCEREYKEQQRQQEEELQRQYQQCQGRCQEQQQGQREQQQCQRKCWEQYKEQERGEHENYHNHK
modifications: peptide according to an embodiment of the invention
notes: Cocoa vicilin-derived antimicrobial peptide of the invention, recombinant or synthetic, mass of 15.3 kDa
- Minimal inhibitory concentration (Ceratosystis paradoxa; [8]): 6.25 µg/mL
- Minimal inhibitory concentration (E. coli): 6.2 µg/mL
- Minimal inhibitory concentration (Botrytis cinerea; [9]): 6.25 µg/mL
- Minimal inhibitory concentration (Listeria monocytogenes [2]; [5]): 7.1 µg/mL
- Minimal inhibitory concentration (Mycosphaerella pinodes; [10]): 4.5 µg/mL
- Minimal inhibitory concentration (Leptosphaeria maculans; [11]): 6.25 µg/mL
- Minimal inhibitory concentration (Candida albicans; [12]): 3.1 µg/mL
- Minimal inhibitory concentration (Sclerotinia sclerotiorum; [13]): 19.3 µg/mL
- Minimal inhibitory concentration [3, 6]: 7.1 µg/mL
- Minimal inhibitory concentration (Verticillium dahliae; [14]): 3.1 µg/mL
- Minimal inhibitory concentration (Pantoea agglomerans; [7]): 1.9 µg/mL
- efficiency compared with the prior art peptides [4]: more efficient than the prior art peptides
